Data set [1] concerns rested human CD8+ T-cells. The conditions noted are these: IL-7-treated CD8+ cells, over 6 hours at 37°C; cited from earlier work. An excerpt:
Internalization of the ternary signaling complex also depletes the local ...

Data set [2] concerns the target T1, human IL-7Rα ECD (Homo sapiens, UniProt P16871).
T1 construct: IL-7Rα(aa 21–236)-His6, Sino Biological Cat# 10975-H08H; His6 (C); purchased Sino Biological 10975-H08H
T1 sequence (P16871 21-236): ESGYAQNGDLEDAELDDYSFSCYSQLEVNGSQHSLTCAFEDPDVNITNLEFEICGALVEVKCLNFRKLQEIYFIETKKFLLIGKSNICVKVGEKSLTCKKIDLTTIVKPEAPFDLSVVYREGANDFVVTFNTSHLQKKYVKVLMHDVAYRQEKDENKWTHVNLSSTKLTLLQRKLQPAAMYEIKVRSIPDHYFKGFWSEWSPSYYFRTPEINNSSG
In words: Competition binding ELISA, human IL-7Rα ECD. The following applies: immobilized IL-7Rα-(His)6 ECD; tracer biotinylated MDK1248 pre-complexed with Neutravidin-HRP; 4°C; valency-sensitive format. From the text:
(§1) (A, B) Determination of IC50 values in a competition ELISA for compound binding to human and cyno IL-7Rα and γc. The assay format is IL-7Rα-(His)6-tagged ECD or Fc-γc ECD immobilized on 96-well plates. Tracers are C-terminal biotinylated forms of the reference IL-7Rα and γc peptide ligands, each pre-complexed with Neutravidin-HRP (NA-HRP). (C, D) Label-free measurement of the equilibrium dissociation constant (KD) for peptide binding to IL-7Rα and γc extracellular domains with peptides was performed by biolayer interferometry as detailed in methods. Red lines depict 1:1 binding fit from Gator™ software. Blue lines represent individual BLI sensogram data taken every 0.1 seconds.
(§2) Binding was determined using a competition binding ELISA. Microtiter plates (Immulon 4HBX flat bottom 96-well) were coated with 50 μL of […] human ECDs: IL-7Rα(aa 21–236)-His6, Sino Biological Cat# 10975-H08H; cynomolgus IL-7Rα(aa 21–235)-His6, Sino Biological Cat# 90332-C08H; human IL-2Rα(aa 23–254)-Fc, Acro Cat# ILG-H5256; cynomolgus IL-2Rα(aa 23–254)-Fc, made in-house, in PBS overnight at 4°C. […] Plates were washed with cold wash buffer, and bound tracer was detected using TMB One Component HRP substrate and Stop Solution (Surmodics Cat# TMBW-1000-01 and LSTP-0100-01). Absorbance at 450 nm was read using Agilent BioTek Synergy HTX Multimode Reader.

Data set [3] has as its target T2, cynomolgus IL-7Rα (Macaca fascicularis, UniProt Q38IC7).
T2 construct: cynomolgus IL-7Rα(aa 21–235)-His6, Sino Biological Cat# 90332-C08H; His6 (C); purchased Sino Biological 90332-C08H
T2 sequence (Q38IC7 21-235): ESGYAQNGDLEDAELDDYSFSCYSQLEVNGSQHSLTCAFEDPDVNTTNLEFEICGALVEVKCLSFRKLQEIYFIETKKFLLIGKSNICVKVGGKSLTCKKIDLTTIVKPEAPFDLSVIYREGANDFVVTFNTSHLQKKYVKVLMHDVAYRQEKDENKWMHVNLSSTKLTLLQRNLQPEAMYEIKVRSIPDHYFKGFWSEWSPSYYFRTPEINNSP
In words: Competition binding ELISA, cynomolgus IL-7Rα ECD. The following applies: immobilized cynomolgus IL-7Rα-His6 ECD; biotinylated peptide/NA-HRP tracer; read-out: Competition ELISA IC50, IL-7Rα Cyno.
From the text: as §1, §2

A short description of data set [4]: Plasma stability in vitro, cynomolgus plasma. Type of data set: in vitro ADME. Also on record: dose or concentration left out as unconfirmed. The conditions noted are these: cynomolgus monkey, 37°C, incubated in duplicate, intact peptide by LC/MS/MS, read-out: t1/2 in cynomolgus plasma (converted). From the text: Affinity maturation of these initial families produced ligands with improved affinities; and combinations of these ligands (one each for IL-7Rα and γc) were joined into heterodimers in a variety of orientations (i.e., joined by N-termini, C-termini, or N-to-C termini), with several connection chemistries, for testing as IL-7R agonists in cell-based assays. The lead peptide agonist for detailed characterization, as described here, is a fusion of peptides MDK1248 and MDK1188, joined with a short intervening linker to form the single-chain peptide MDK1472. The peptides were analyzed for sequence similarity to IL-7, and none was found.
Supplementary file pone.0286834.s001.pptx: S1 Fig Plasma stability of MDK 1472 in vitro. […] MDK1472 or control peptide YGGFL incubated in duplicate in human or cynomolgus plasma at 37°C. At indicated time points, compounds were isolated from the plasma and the quantity of intact peptides measured by LC/MS/MS (Study performed by Quintara Discovery, Hayward, CA). (PPTX) Click here for additional data file.

Bridge positions count the residues as written; N and C are the ends. Ends that are not written are not given here.

As to IL-7: human IL-7 cytokine (Peprotech), the “disappearance of surface IL-7Rα” value in data set [1] is ~ 80%.

Regarding “Ac-GWGIPWCTLDPGSLQCAWLGKHGGGGSGGVVCQDWEGVELCWQGG (disulfide 7-16, 32-41) [MDK1472]”, the IC50 came to 340 nM in data set [2] and 190 nM in data set [3]. Besides, in data set [4], the half-life is 104 h.
